Data from PubChem BioAssay AID330 (DTP/NCI, 2004).
Values joined by “and” are separate entries in the source; they are usually repeats but may differ in a detail not shown here. Equal entries are not always repeated. Toxic doses and inconclusive results are not listed. How the source made its calls: active means survival T/C of 150% or more; inactive means T/C below 125% in these data.

System: P388 leukemia ip, CD2F1 mice, survival T/C
Test: NCI In Vivo Anticancer Drug Screen. Data for tumor model P388 Leukemia (intraperitoneal) in CD2F1 (CDF1) mice
Settings: endpoint: median survival time, higher = longer survival
How it was run: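 Mice carrying the transplanted tumor received test compound or vehicle. Survival was recorded in each group, and the value is the treated-group measurement divided by that of the vehicle-treated control group.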

[1] = dose: 50.0 mg/kg/injection, schedule: Q01DX009 (ip), vehicle: saline
[2] = dose: 100.0 mg/kg/injection, schedule: Q01DX009 (ip), vehicle: saline
[3] = dose: 200.0 mg/kg/injection, schedule: Q01DX009 (ip), vehicle: saline
[4] = dose: 200.0 mg/kg/injection, schedule: Q01DX009 (ip), vehicle: saline with Tween-80
[5] = dose: 25.0 mg/kg/injection, schedule: Q01DX005 (ip), vehicle: Klucel (hydroxypropylcellulose) (HPC)
[6] = dose: 50.0 mg/kg/injection, schedule: Q01DX005 (ip), vehicle: Klucel (hydroxypropylcellulose) (HPC)
[7] = dose: 100.0 mg/kg/injection, schedule: Q01DX005 (ip), vehicle: Klucel (hydroxypropylcellulose) (HPC)
[8] = dose: 200.0 mg/kg/injection, schedule: Q01DX005 (ip), vehicle: Klucel (hydroxypropylcellulose) (HPC)
[9] = dose: 50.0 mg/kg/injection, schedule: Q01DX009 (ip), vehicle: saline with Tween-80
[10] = dose: 100.0 mg/kg/injection, schedule: Q01DX009 (ip), vehicle: saline with Tween-80
[11] = dose: 100.0 mg/kg/injection, schedule: Q04DX003 (ip), vehicle: saline with Tween-80
[12] = dose: 200.0 mg/kg/injection, schedule: Q04DX003 (ip), vehicle: saline with Tween-80
[13] = dose: 400.0 mg/kg/injection, schedule: Q01DX009 (ip), vehicle: saline with Tween-80
[14] = dose: 400.0 mg/kg/injection, schedule: Q04DX003 (ip), vehicle: saline with Tween-80
[15] = dose: 60.0 mg/kg/injection, schedule: Q01DX005 (ip), vehicle: saline with Tween-80
[16] = dose: 120.0 mg/kg/injection, schedule: Q01DX005 (ip), vehicle: saline with Tween-80
[17] = dose: 240.0 mg/kg/injection, schedule: Q01DX005 (ip), vehicle: saline with Tween-80

Measured: T/C

O=NN(CCCl)C(=O)NC1CCCCC1
inactive: dose: 1.0 mg/kg/injection, schedule: Q01DX009 (ip), vehicle: saline with Tween-80 118 % of control | dose: 33.3 mg/kg/injection, schedule: Q04DX003 (ip), vehicle: saline + alcohol 119 % of control
active: dose: 4.0 mg/kg/injection, schedule: Q01DX009 (ip), vehicle: saline with Tween-80 168 % of control | dose: 7.2 mg/kg/injection, schedule: Q04DX003 (ip), vehicle: saline + alcohol 204 % of control | dose: 8.0 mg/kg/injection, schedule: Q01DX009 (ip), vehicle: saline with Tween-80 218 % of control and 240 % of control | dose: 12.0 mg/kg/injection, schedule: Q04DX003 (ip), vehicle: carboxymethylcellulose (CMC) 154 % of control | dose: 12.0 mg/kg/injection, schedule: Q04DX003 (ip), vehicle: saline + alcohol 339 % of control | dose: 16.0 mg/kg/injection, schedule: Q01DX009 (ip), vehicle: saline with Tween-80 272 % of control | dose: 18.0 mg/kg/injection, schedule: Q04DX003 (ip), vehicle: carboxymethylcellulose (CMC) 190 % of control and 191 % of control | dose: 20.0 mg/kg/injection, schedule: Q04DX003 (ip), vehicle: saline + alcohol 412 % of control | dose: 27.0 mg/kg/injection, schedule: Q04DX003 (ip), vehicle: carboxymethylcellulose (CMC) 227 % of control and 243 % of control | dose: 40.0 mg/kg/injection, schedule: Q04DX003 (ip), vehicle: carboxymethylcellulose (CMC) 304 % of control and 538 % of control | dose: 64.0 mg/kg/injection, schedule: Q01DX001 (ip), vehicle: saline + alcohol 250 % of control and 265 % of control | dose: 128.0 mg/kg/injection, schedule: Q01DX001 (ip), vehicle: saline + alcohol 168 % of control

N#CC(C#N)=Cc1ccc(N2CCOCC2)cc1
inactive: [1] 90 % of control | [2] 97 % of control | [3] 90 % of control

CCOC(=O)c1ccc(N=NC2Sc3nc4ccccc4n3C2=O)cc1 (stereo not given)
inactive: dose: 7.5 mg/kg/injection, schedule: Q01DX005 (ip), vehicle: Klucel (hydroxypropylcellulose) (HPC) 97 % of control | dose: 15.0 mg/kg/injection, schedule: Q01DX005 (ip), vehicle: Klucel (hydroxypropylcellulose) (HPC) 92 % of control | dose: 30.0 mg/kg/injection, schedule: Q01DX005 (ip), vehicle: Klucel (hydroxypropylcellulose) (HPC) 90 % of control

CCCCCCCCCCCCCCC(O)C(=O)O (stereo not given)
inactive: [4] 89 % of control

O=c1[nH]cnc2nc(S(=O)(=O)F)[nH]c12
inactive: dose: 50.0 mg/kg/injection, schedule: Q01DX005 (ip), vehicle: saline with Tween-80 103 % of control | dose: 100.0 mg/kg/injection, schedule: Q01DX005 (ip), vehicle: saline with Tween-80 103 % of control | dose: 200.0 mg/kg/injection, schedule: Q01DX005 (ip), vehicle: saline with Tween-80 103 % of control

Clc1ccc2c(c1)nc(-c1ccccn1)n2CCc1ccncc1
inactive: [5] 100 % of control | [6] 95 % of control | [7] 99 % of control | [8] 99 % of control

O=C(O)Cc1sc(-c2ccccc2)nc1-c1ccc(Cl)cc1
inactive: [9] 114 % of control | [10] 110 % of control | [4] 112 % of control

O=C(Nc1ccc(C2=NCCN2)cc1)C1CCC(C(=O)Nc2ccc(C3=NCCN3)cc2)CC1 (stereo not given)
inactive: [13] 118 % of control
active: [10] 227 % of control | [11] 154 % of control | [4] 209 % of control | [12] 186 % of control | dose: 264.0 mg/kg/injection, schedule: Q04DX003 (ip), vehicle: saline with Tween-80 213 % of control | [14] 231 % of control and 254 % of control | dose: 600.0 mg/kg/injection, schedule: Q04DX003 (ip), vehicle: saline with Tween-80 236 % of control

CC(=O)OCC1OC(n2cc(C)c(=O)[nH]c2=O)CC1OC(C)=O (stereo not given)
inactive: [10] 110 % of control | [11] 100 % of control | [4] 110 % of control | [12] 100 % of control | [13] 110 % of control | [14] 104 % of control

Cc1ccc(C2=C3CCCCC3c3cc(C)ccc32)cc1 (stereo not given)
inactive: [5] 91 % of control | [6] 97 % of control | [7] 90 % of control | [8] 90 % of control

CCOC(=O)c1ccc(NC(=O)O/N=C/c2ccncc2)cc1
inactive: dose: 6.25 mg/kg/injection, schedule: Q01DX009 (ip), vehicle: saline with Tween-80 88 % of control | dose: 12.5 mg/kg/injection, schedule: Q01DX009 (ip), vehicle: saline with Tween-80 112 % of control | dose: 25.0 mg/kg/injection, schedule: Q01DX009 (ip), vehicle: saline with Tween-80 88 % of control | [9] 93 % of control | [10] 94 % of control | [4] 90 % of control

COc1ccc(C(O)c2ccc(OC)c(OC)c2)cc1OC
inactive: dose: 25.0 mg/kg/injection, schedule: Q01DX009 (ip), vehicle: other 100 % of control | dose: 50.0 mg/kg/injection, schedule: Q01DX009 (ip), vehicle: other 100 % of control | dose: 100.0 mg/kg/injection, schedule: Q01DX009 (ip), vehicle: other 96 % of control | dose: 200.0 mg/kg/injection, schedule: Q01DX009 (ip), vehicle: other 89 % of control | dose: 400.0 mg/kg/injection, schedule: Q01DX009 (ip), vehicle: other 89 % of control

Nc1cc(O)c(O)c2c1C(=O)c1c(O)c(O)cc(N)c1C2=O
inactive: [6] 102 % of control | [7] 105 % of control | [8] 99 % of control

O=C(Nc1ccc(S(=O)(=O)F)cc1)Oc1ccc([N+](=O)[O-])cc1
inactive: [15] 121 % of control | [16] 101 % of control | [17] 86 % of control

CCN(CC)CCNc1ccc(C)c2oc3ccc(O)cc3c(=O)c12
inactive: dose: 12.5 mg/kg/injection, schedule: Q01DX005 (ip), vehicle: distilled water + Tween-80 106 % of control | dose: 25.0 mg/kg/injection, schedule: Q01DX005 (ip), vehicle: distilled water + Tween-80 106 % of control | dose: 50.0 mg/kg/injection, schedule: Q01DX005 (ip), vehicle: distilled water + Tween-80 117 % of control

COc1cc(S(=O)(=O)O)ccc1N=N/C(=N\Nc1ccc(S(=O)(=O)O)cc1OC)C(N)=O
inactive: [6] 100 % of control | [7] 108 % of control and 92 % of control | [8] 103 % of control and 93 % of control

O=C(O)Cc1ccc(-c2cn3c(n2)sc2ccccc23)cc1
inactive: [1] 108 % of control | [2] 107 % of control | [3] 112 % of control

O/N=C(\c1ccccc1)C1c2ccccc2-c2ccccc21
inactive: [15] 94 % of control | [16] 94 % of control | [17] 94 % of control

O=C(c1cccs1)c1ccc(Cl)cc1Cl
inactive: dose: 50.0 mg/kg/injection, schedule: Q01DX009 (ip), vehicle: Klucel (hydroxypropylcellulose) (HPC) 107 % of control | dose: 100.0 mg/kg/injection, schedule: Q01DX009 (ip), vehicle: Klucel (hydroxypropylcellulose) (HPC) 103 % of control | dose: 200.0 mg/kg/injection, schedule: Q01DX009 (ip), vehicle: Klucel (hydroxypropylcellulose) (HPC) 104 % of control

Cc1cc(N2CCOCC2)ccc1N=Nc1nc2ccccc2s1
inactive: dose: 100.0 mg/kg/injection, schedule: Q01DX001 (ip), vehicle: saline 89 % of control | dose: 200.0 mg/kg/injection, schedule: Q01DX001 (ip), vehicle: saline 88 % of control

S=C=NP1(N=C=S)=NP(N=C=S)(N=C=S)=NP(N=C=S)(N=C=S)=N1 (stereo not given)
inactive: [6] 107 % of control | [7] 97 % of control

N#CCCC1CS1 (stereo not given)
inactive: dose: 18.75 mg/kg/injection, schedule: Q01DX009 (ip), vehicle: saline with Tween-80 103 % of control | dose: 37.5 mg/kg/injection, schedule: Q01DX009 (ip), vehicle: saline with Tween-80 108 % of control | dose: 75.0 mg/kg/injection, schedule: Q01DX009 (ip), vehicle: saline with Tween-80 109 % of control

C/C(=N\NC(=S)N1CCCCCCCCCCCC1)c1ccccn1
inactive: dose: 6.25 mg/kg/injection, schedule: Q04DX003 (ip), vehicle: Klucel (hydroxypropylcellulose) (HPC) 101 % of control | dose: 12.5 mg/kg/injection, schedule: Q04DX003 (ip), vehicle: Klucel (hydroxypropylcellulose) (HPC) 100 % of control and 102 % of control and 117 % of control | dose: 25.0 mg/kg/injection, schedule: Q04DX003 (ip), vehicle: Klucel (hydroxypropylcellulose) (HPC) 100 % of control and 113 % of control and 120 % of control | dose: 50.0 mg/kg/injection, schedule: Q04DX003 (ip), vehicle: Klucel (hydroxypropylcellulose) (HPC) 93 % of control

c1cc(OCCOc2cccc3ocnc23)c2ncoc2c1
inactive: [15] 98 % of control and 92 % of control | [16] 99 % of control | [17] 86 % of control and 89 % of control
